Source: patent publication US20070190523A1 (priority 2002, published 2007)

Experiments:
WT = test system: WT; parameters: species or system HIV-1; conditions: read-out: Cell-based assay (MT-4) EC50/nM WT
84V90M [1] = molecular target: T1, 84V90M (Human immunodeficiency virus type 1 group M subtype B, UniProt P04585, I572V/L578M); format: biochemical, HIV-1; conditions: 84V90M enzyme; read-out: Enzymatic assay 84V90M IC50/nM
84V90M [2] = molecular target: T1, 84V90M; assay: Cell-based assay (MT-4) EC50, 84V90M; parameters: species or system HIV-1

Row | Compound | EC50 (WT) [nM] | IC50 (84V90M [1]) [nM] | EC50 (84V90M [2]) [µM]
1 | O=C1N(Cc2ccccc2)C(Cc2ccccc2)C(O)C(O)C(Cc2ccc(O)cc2)N1Cc1ccccc1 (stereo not drawn) [H / Ph / OH] | 1260 | – | –
2 | CCOP(=O)(CCNC(=O)Oc1ccc(CC2C(O)C(O)C(Cc3ccc(OC)cc3)N(Cc3cccc(N)c3)C(=O)N2Cc2cccc(N)c2)cc1)OCC (stereo not drawn) [OCH3 / Ph-mNH2 / OCONH(CH2)2PO3Et2] | – | 116 | 2.26
